ChEMBL document CHEMBL1140860, “Synthesis and evaluation of dihydroartemisinin and dihydroartemisitene acetal dimers showing anticancer and antiprotozoal activity” (Bioorg Med Chem, 2009)

How the values were obtained:
U-251 = test: Growth inhibition of human U251 cells after 48 hrs by sulforhodamine B assay; format: functional; details: U-251, 48 h
LOX IMVI = test: Growth inhibition of human LOXIMVI cells after 48 hrs by sulforhodamine B assay; format: functional
HCC 2998 = test: Growth inhibition of human HCC2998 cells after 48 hrs by sulforhodamine B assay; format: functional; details: HCC 2998, 48 h
KM12 = test: Growth inhibition of human KM12 cells after 48 hrs by sulforhodamine B assay; format: functional; details: KM12, 48 h
UACC-62 = test: Growth inhibition of human UACC62 cells after 48 hrs by sulforhodamine B assay; format: functional; details: UACC-62, 48 h
A498 = test: Growth inhibition of human A498 cells after 48 hrs by sulforhodamine B assay; format: functional; details: A498, 48 h
[1] = Selectivity index, ratio of TC50 for african green monkey (Cercopithecus aethiops) Vero cells to IC50 for chloroquine-sensitive Plasmodium falciparum D6; format: toxicity, cell-based
[2] = Growth inhibition of human […] cells after 48 hrs by sulforhodamine B assay; format: functional
COLO 205 = test: Growth inhibition of human COLO205 cells after 48 hrs by sulforhodamine B assay; format: functional; details: COLO 205, 48 h
IGROV-1 = test: Growth inhibition of human IGROV1 cells after 48 hrs by sulforhodamine B assay; format: functional; details: IGROV-1, 48 h
OVCAR-5 = test: Growth inhibition of human OVCAR5 cells after 48 hrs by sulforhodamine B assay; format: functional; details: OVCAR-5, 48 h
HL-60 = test: Growth inhibition of human HL-60(TB) cells after 48 hrs by sulforhodamine B assay; format: functional; details: HL-60, 48 h
SR = test: Growth inhibition of human SR cells after 48 hrs by sulforhodamine B assay; format: functional
NCI-H322M = test: Growth inhibition of human NCI-H322M cells after 48 hrs by sulforhodamine B assay; format: functional
HOP-92 = test: Growth inhibition of human HOP92 cells after 48 hrs by sulforhodamine B assay; format: functional; details: HOP-92, 48 h
A549 = test: Growth inhibition of human A549 cells after 48 hrs by sulforhodamine B assay; format: functional; details: A549, 48 h
BT-549 = test: Growth inhibition of human BT549 cells after 48 hrs by sulforhodamine B assay; format: functional; details: BT-549, 48 h
NCI-H460 = test: Growth inhibition of human NCI-H460 cells after 48 hrs by sulforhodamine B assay; format: functional; details: NCI-H460, 48 h
NCI-H522 = test: Growth inhibition of human NCI-H522 cells after 48 hrs by sulforhodamine B assay; format: functional; details: NCI-H522, 48 h
K562 = test: Growth inhibition of human K562 cells after 48 hrs by sulforhodamine B assay; format: functional; details: K562, 48 h
HCT-15 = test: Growth inhibition of human HCT15 cells after 48 hrs by sulforhodamine B assay; format: functional; details: HCT-15, 48 h
SK-MEL-5 = test: Growth inhibition of human SK-MEL-5 cells after 48 hrs by sulforhodamine B assay; format: functional; details: SK-MEL-5, 48 h
SNB-19 = test: Growth inhibition of human SNB19 cells after 48 hrs by sulforhodamine B assay; format: functional; details: SNB-19, 48 h
PC-3 = test: Growth inhibition of human PC3 cells after 48 hrs by sulforhodamine B assay; format: functional; details: PC-3, 48 h
MDA-MB-231 = test: Growth inhibition of human MDA-MB-231 cells after 48 hrs by sulforhodamine B assay; format: functional; details: MDA-MB-231, 48 h
ACHN = test: Growth inhibition of human ACHN cells after 48 hrs by sulforhodamine B assay; format: functional
HOP-62 = test: Growth inhibition of human HOP62 cells after 48 hrs by sulforhodamine B assay; format: functional; details: HOP-62, 48 h
HT-29 = test: Growth inhibition of human HT-29 cells after 48 hrs by sulforhodamine B assay; format: functional; details: HT-29, 48 h
NCI-H226 = test: Growth inhibition of human NCI-H226 cells after 48 hrs by sulforhodamine B assay; format: functional; details: NCI-H226, 48 h
EKVX = test: Growth inhibition of human EKVX cells after 48 hrs by sulforhodamine B assay; format: functional
Plasmodium falciparum [3] = test: Antimalarial activity after 72 hrs against chloroquine-resistant Plasmodium falciparum W2 infected erythrocytes by LDH assay; format: functional, organism-based; details: W2, 72 h
SNB-75 = test: Growth inhibition of human SNB75 cells after 48 hrs by sulforhodamine B assay; format: functional; details: SNB-75, 48 h
CCRF-CEM = test: Growth inhibition of human CCRF-CEM cells after 48 hrs by sulforhodamine B assay; format: functional
CAKI-1 = test: Growth inhibition of human Caki1 cells after 48 hrs by sulforhodamine B assay; format: functional; details: CAKI-1, 48 h
[4] = Growth inhibition of human Hs 578T cells after 48 hrs by sulforhodamine B assay; format: functional
TK-10 = test: Growth inhibition of human TK10 cells after 48 hrs by sulforhodamine B assay; format: functional; details: TK-10, 48 h
Plasmodium falciparum [5] = test: Antimalarial activity after 72 hrs against chloroquine-sensitive Plasmodium falciparum D6 infected in erythrocytes by LDH assay; format: functional, organism-based; details: D6, 72 h
NCI-H23 = test: Growth inhibition of human NCI-H23 cells after 48 hrs by sulforhodamine B assay; format: functional; details: NCI-H23, 48 h
NCI/ADR-RES = test: Growth inhibition of human NCI/ADR-RES cells after 48 hrs by sulforhodamine B assay; format: functional
786-0 = test: Growth inhibition of human 786-0 cells after 48 hrs by sulforhodamine B assay; format: functional; details: 786-0, 48 h
OVCAR-3 = test: Growth inhibition of human OVCAR-3 cells after 48 hrs by sulforhodamine B assay; format: functional; details: OVCAR-3, 48 h
UO-31 = test: Growth inhibition of human UO31 cells after 48 hrs by sulforhodamine B assay; format: functional; details: UO-31, 48 h
MDA-MB-435 = test: Growth inhibition of human MDA-MB-435 cells after 48 hrs by sulforhodamine B assay; format: functional; details: MDA-MB-435, 48 h
SK-MEL-28 = test: Growth inhibition of human SK-MEL-28 cells after 48 hrs by sulforhodamine B assay; format: functional; details: SK-MEL-28, 48 h
SN12C = test: Growth inhibition of human SN12C cells after 48 hrs by sulforhodamine B assay; format: functional
M14 = test: Growth inhibition of human M14 cells after 48 hrs by sulforhodamine B assay; format: functional; details: M14, 48 h
T47D = test: Growth inhibition of human T47D cells after 48 hrs by sulforhodamine B assay; format: functional
HCT-116 = test: Growth inhibition of human HCT116 cells after 48 hrs by sulforhodamine B assay; format: functional; details: HCT-116, 48 h
[6] = Cytotoxicity against african green monkey Vero cells after 48 hrs by neutral red assay; format: cell-based; details: chlorocebus sabaeus, read-out: TC50
MCF7 = test: Growth inhibition of human MCF7 cells after 48 hrs by sulforhodamine B assay; format: functional; details: MCF7, 48 h
OVCAR-8 = test: Growth inhibition of human OVCAR8 cells after 48 hrs by sulforhodamine B assay; format: functional; details: OVCAR-8, 48 h

With `COCC(CO[C@H]1O[C@@H]2O[C@@]3(C)CC[C@H]4[C@H](C)CC[C@@H]([C@H]1C)[C@@]24OO3)O[C@H]1O[C@@H]2O[C@@]3(C)CC[C@H]4[C@H](C)CC[C@@H]([C@H]1C)[C@@]24OO3` (stereo partly specified) the GI50 (U-251) was 21 nM, the GI50 (LOX IMVI) was 23 nM and the GI50 (HCC 2998) was 108 nM. For the same compound, the GI50 (KM12) was 18 nM, the GI50 (UACC-62) was 135 nM and the GI50 (A498) was 148 nM. The selectivity ratio [1] was over 43, the GI50 [2] was 4 nM and the GI50 (COLO 205) was 11 nM. The GI50 (IGROV-1) was 4200 nM, the GI50 (OVCAR-5) was 104 nM and the GI50 (HL-60) was 28 nM. For the same compound, the GI50 (SR) was 15 nM, the GI50 (NCI-H322M) was 5960 nM and the GI50 (HOP-92) was 71 nM. It also gave a GI50 (A549) of 61 nM, a GI50 (BT-549) of 7520 nM and a GI50 (NCI-H460) of 81 nM. It also gave a GI50 (NCI-H522) of 58 nM, a GI50 (K562) of 27 nM and a GI50 (HCT-15) of 17 nM. For the same compound, the GI50 (SK-MEL-5) was 496 nM, the GI50 (SNB-19) was 249 nM and the GI50 (PC-3) was 19 nM. It also gave a GI50 (MDA-MB-231) of 13100 nM, a GI50 (ACHN) of 189 nM and a GI50 (HOP-62) of 5620 nM. For the same compound, the GI50 (HT-29) was 19 nM, the GI50 (NCI-H226) was 87 nM and the GI50 (EKVX) was 689 nM. For the same compound, the IC50 (Plasmodium falciparum [3]) was 4700 nM, the GI50 (SNB-75) was 22600 nM and the GI50 (CCRF-CEM) was 19 nM. For the same compound, the GI50 (CAKI-1) was 192 nM, the GI50 [4] was 74 nM and the GI50 (TK-10) was 58 nM. It also gave an IC50 (Plasmodium falciparum [5]) of 17200 nM, a GI50 (NCI-H23) of 81 nM and a GI50 (NCI/ADR-RES) of 533 nM. It also gave a GI50 (786-0) of 185 nM, a GI50 (OVCAR-3) of 65 nM and a GI50 (UO-31) of 125 nM. It also gave a GI50 (MDA-MB-435) of 443 nM, a GI50 (SK-MEL-28) of 5750 nM and a GI50 (SN12C) of 153 nM. For the same compound, the GI50 (M14) was 49 nM, the GI50 (T47D) was 14 nM and the GI50 (HCT-116) was 12 nM. It also gave a CC50 at 48 h [6] of over 745000 nM, a GI50 (MCF7) of 150 nM and a GI50 (OVCAR-8) of 130 nM.
